# How the values were obtained:
# CCRF-CEM cells [1] = assay: [3H]MTX uptake (initial velocity and 30 min accumulation) in CCRF-CEM cells; type: cell-based, human
# Procedure: (§1) Quantitation of folate and antifolate uptake. The method is essentially as follows. Briefly, logarithmically growing (3-5×10^5/ml) CCRF-CEM cells were harvested at room temperature by centrifugation at 1000×g for 5 min. After washing with the appropriate medium, cells were suspended at ≈2×10^7 cells/ml for use in transport studies. […] Anion-free MHS contains 250 mM sucrose and 20 mM HEPES, titrated to pH 7.4 with MgO. […] Uptake was measured as a function of time for 30 min (for rate and extent measurements) or over 5 min (studies requiring initial velocities). […] Uptake was terminated by diluting 100 μL samples into 1 ml of iced 0.9% NaCl. […] The supernatant was aspirated. The cell pellet was washed once with 1 ml iced 0.9% NaCl and centrifuged as above. The washed pellet was solubilized in 1 ml of 0.3% Triton X-100 by incubation for 60 min at 37° C. The solubilized pellet was transferred to a scintillation vial, 10 ml of Liquiscint (National Diagnostics, Atlanta, Ga.) was added and radioactivity was quantitated in a Beckman Model LS6500 liquid scintillation counter. Separate samples at the longest incubation time used in a particular experiment were harvested for HPLC analysis of intracellular contents as above, except that after the second wash the pellets were extracted with 1 ml boiling 0.1 M Na-phosphate, pH 5.5. The extract was clarified by centrifugation and the supernatant was filtered through an MPS-1 filter unit (Amicon) prior to HPLC analysis.
# CCRF-CEM = settings: 10 μg/ml, within 5 min; cited from earlier work
# [2] = target: T1, reduced folate carrier (RFC) (Homo sapiens, UniProt P41440); assay: Kinetic constants for influx of [3H]MTX by CCRF-CEM cells; type: cell-based; settings: influx of [3H]MTX; pre-incubation with solvent (MTX alone), 1 μM TMTX, or 1 μM TMTX + 0.5 mM Z
# T1 construct: endogenous in cells; host or cells: CCRF-CEM (parental)
# T1 sequence (P41440 1-591): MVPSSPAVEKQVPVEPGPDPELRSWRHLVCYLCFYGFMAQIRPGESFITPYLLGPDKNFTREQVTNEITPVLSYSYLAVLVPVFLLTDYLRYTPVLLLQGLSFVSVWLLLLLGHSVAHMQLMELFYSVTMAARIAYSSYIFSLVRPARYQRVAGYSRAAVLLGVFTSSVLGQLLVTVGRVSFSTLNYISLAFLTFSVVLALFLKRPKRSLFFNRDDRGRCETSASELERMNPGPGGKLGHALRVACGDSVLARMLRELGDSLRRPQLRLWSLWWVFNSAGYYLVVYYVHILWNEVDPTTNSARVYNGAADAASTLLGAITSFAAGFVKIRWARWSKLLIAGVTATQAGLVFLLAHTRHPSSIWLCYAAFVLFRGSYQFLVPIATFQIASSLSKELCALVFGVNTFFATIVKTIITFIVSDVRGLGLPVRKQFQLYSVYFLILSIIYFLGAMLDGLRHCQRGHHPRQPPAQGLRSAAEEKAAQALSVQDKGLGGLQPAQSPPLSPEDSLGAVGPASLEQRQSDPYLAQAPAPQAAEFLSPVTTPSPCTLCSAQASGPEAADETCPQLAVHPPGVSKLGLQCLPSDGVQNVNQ
# Procedure: as §1
# Inhibition of the vi of uptake was measured after pre-incubation of CCRF-CEM cells either with TMTX alone (measuring inhibition at the RFC) or with TMTX+Z (measuring inhibition during Z potentiation). […] All studies were carried out in standard transport medium. Inhibitory potency was measured in two series of experiments and AMT was included in each series as an internal control. Values are average±range of two determinations. […] Values are average±range for duplicate determinations.
# CCRF-CEM cells [3] = assay: Subcellular localization of [3H]MTX; type: cell-based, human; settings: 30 min uptake of 2 μM [3H]MTX; 2 μM TMTX, 500 μM Z
# Procedure: Subcellular fractionation. […] Cells were diluted 9-fold in iced 0.9% NaCl, centrifuged at 1000×g for 5 min and washed once with 40 ml iced saline. All subsequent steps were performed at 4°. Cells were homogenized as previously described, except that hypotonic buffer at 20-fold the packed cell volume was used, and the homogenate was centrifuged for 6 min at 1000×g to yield a nuclear pellet (also containing unlysed cells and large debris) and a post-nuclear supernatant (PNS). Based on controls using nonradiolabeled cells, >91% of the cells would be lysed during homogenization. The PNS was centrifuged at 17,000×g to yield a combined mitochondria-lysosome pellet. The resulting supernatant was centrifuged at 100,000×g for 60 min to yield the 100,000×g supernatant (cytosol). The 100,000×g pellet (microsomes) and the combined mitochondria-lysosome pellet were each washed in isotonic buffer and centrifuged at their respective g-forces. All pellets were solubilized in 0.3% Triton X-100 by incubating at 37° for 1 hr; 1 ml was transferred to a scintillation vial for quantitation. Triton X-100 was added to the cytosol to a final concentration of 0.3% and a 1 ml aliquot was quantitated. Radioactivity in each fraction was corrected for a blank containing 0.3% Triton X-100.
# CCRF-CEM cells [4] = assay: [3H]leucovorin uptake in CCRF-CEM cells; type: cell-based, human; settings: 1 μM [3H]LV; 10 min preincubation, 1 μM TMTX, 0.5 mM Z
# Procedure: as §1
# CCRF-CEM cells [5] = assay: Effect of protein kinase inhibitors on [3H]MTX uptake; type: cell-based, human
# From the text: To determine whether protein phosphorylation is involved in the mechanism of Z potentiation, we began studies with a series of protein kinase (PK) inhibitors (PKI).
smiles,measurement,setting,value
"C[C@@H]1C[C@@H]([C@H](O)CC2CC(=O)NC(=O)C2)C(=O)[C@@H](C)C1 [CHX, cycloheximide]",Potentiation of [3H]MTX influx by 0.5 mM Z after protein synthesis inhibition,"CCRF-CEM cells [1]; 10 μg/ml CHX preincubated 10 min, Z added for last 5 min",potentiation still occurred
same,Inhibition of protein synthesis,CCRF-CEM,completely inhibited
"COc1cc(NCc2ccc3nc(N)nc(N)c3c2C)cc(OC)c1OC [TMTX, trimetrexate]",Kt,[2],5.3 ± 0.6 µM
same,Vmax,[2],7.2 ± 0.6 pmol/min/10^7 cells
same,Vmax/Kt,[2],1.36
same,"Relative radioactivity, Cytosol",CCRF-CEM cells [3],88.9%
same,"Relative radioactivity, Microsomes",CCRF-CEM cells [3],0.2%
same,"Relative radioactivity, Mito-Lysosomes",CCRF-CEM cells [3],0.4%
same,"Relative radioactivity, Nuclear Pellet",CCRF-CEM cells [3],10.5%
same,Total [3H]MTX recovered in all four fractions,CCRF-CEM cells [3],338.4 pmol
same,"[3H]MTX/fraction, Cytosol",CCRF-CEM cells [3],300.3 pmol
same,"[3H]MTX/fraction, Microsomes",CCRF-CEM cells [3],0.7 pmol
same,"[3H]MTX/fraction, Mito-Lysosomes",CCRF-CEM cells [3],1.3 pmol
same,"[3H]MTX/fraction, Nuclear Pellet",CCRF-CEM cells [3],35.5 pmol
same,Increase in 30 min accumulation (extent) of [3H]LV,CCRF-CEM cells [4],1.6 fold
same,Increase in vi of [3H]LV uptake,CCRF-CEM cells [4],1.4 fold
same,Extent of [3H]MTX accumulation at 30 min relative to absence of TMTX,"CCRF-CEM cells [1]; 10 min preincubation with 2 μM TMTX, no Z",90-100%
"O=c1c(O)c(-c2ccc(O)c(O)c2)oc2cc(O)cc(O)c12 [Quercetin, quercetin]",Decrease of 30 min accumulation +TMTX+Z,CCRF-CEM cells [5]; 50 μM,21%
same,Decrease of initial influx rate,CCRF-CEM cells [5]; 50 μM,43%
same,Decrease of 30 min accumulation +TMTX+Z,CCRF-CEM cells [5]; 100 μM,38%
same,Decrease of initial influx rate,CCRF-CEM cells [5]; 100 μM,55%
same,Increase of uptake +TMTX at 30 min,CCRF-CEM cells [5]; 50 or 100 μM,10-12%

# Source: patent US7687473B2, “5-amino-4-imidazolecarboxamide riboside and its nucleobase as potentiators of antifolate transport and metabolism” (Health Research, Inc., priority 2005, dated 2010)
